Experimental data taken from patent US20230123863A1, “A GLIA CELL AND NEURON CO-CULTURE SYSTEM AND METHOD” (National Yang-Ming University, priority 2020, published 2023).

Columns and labels:
[1] = system: Primary rat cortical GN mix cultures; assay: NMDA-induced neurotoxicity in primary cortical glia-neuron (GN) mix culture, MAP2 and TUNEL staining; assay type: cell-based; settings: 9 DIV, 30 min pretreatment with 0.1 μM 14,15-EET or 10 μM AUDA, 24 h
Protocol: Primary cortical NE cultures were prepared from embryonic day 17 SD fetal rats. The cultures were maintained in Neurobasal™ medium, and 9-10 days in vitro (DIV) culture was used for the study. Primary astrocyte cultures were prepared from SD rat pups at P1-2, with the purified astrocytes grown in 50% DMEM/50% Neurobasal™ medium containing heparin-binding EGF-like growth factor (HBEGF) or GNCM wherein GCM and NM are at a ratio of 1:1. Primary glia-neuron mix cultures were prepared from P0 rat brains. The harvested cerebral cortex was mechanically triturated in glia culture medium (GCM), comprising DMEM supplemented with 10% FBS. The mixture was stationed at room temperature for 1 minute, and the supernatant centrifuged at 1,500 rpm to obtain the cell pellet. The pellet was resuspended in GCM and seeded onto 24-well plates coated with poly-L-lysine (0.1 mg/mL). The culture medium was replaced with an embodiment of the GNCM medium of the present invention comprising a 1:1 mixture of GCM and B-27-containing Neurobasal™ 1 hour after the initial seeding.
The day of cell plating was considered as 0 DIV, and 9-10 DIV cultures were used for the experiments.
Primary rat cortical GN mix and NE cultures at 9 days in vitro were pretreated with 0.1 μM 14,15-EET, 10 μM 12-(3-adamantan-1-yl-ureido)-dodecanoic acid (AUDA), or vehicle for 30 min, and then treated with or without 14,15-epoxyeicosa-5(Z)-enoic acid (14,15-EEZE) (EZ) or N-methyl-D-aspartate (NMDA). Representative immunofluorescent images of MAP2 and TUNEL staining in GN mix and NE cultures were treated as indicated for 24 h. Total cell nuclei were counterstained with DAPI. Scale bar=50 μm.
Neuron dendrites were marked with MAP2 and colored in red, cell nuclei were marked with DAPI and colored in blue, while cell death was marked with TUNEL and colored in green.
Both MAP2^+ neurite density and TUNEL^+ cells were normalized by the total DAPI number in each quantified microscopic field.

[2] = system: dorsal hippocampus of male SD adult rats; assay: kainic acid i.c.v. injection-induced hippocampal damage, NeuN, MAP2 and GLT-1 immunostaining; assay type: in vivo, rat
Protocol: To validate the in vitro results, the effect of sEH inhibition on neuronal loss in the hippocampus after excitotoxic insult was investigated in vivo. First examined was the effect of CNS administration of AUDA on kainic acid (KA), an epileptic seizure-inducing substance, i.c.v. injection-induced hippocampal damage in male SD adult rats. The extent of neuronal damage in the dorsal hippocampus was examined 24 h after the KA injection by immunostaining with NeuN and MAP2 for neuronal nuclei and dendrites, respectively.
Eight-week-old male SD rats were subjected to unilateral i.c.v. injection of saline, KA, or KA with the sEH inhibitor AUDA. Rat brains were harvested 24 h after the injection for immunohistochemistry.
NeuN^+ cells of each hippocampal subregion were determined by counting the number of NeuN^+/DAPI^+ cells and then normalized with respective saline treatment group. MAP2 area was determined by the percentage of the immunoreactive area in each hippocampal region of interest and then normalized with the respective saline treatment group. […] Scale bar=100 μm. When compared with FIGS. 20-23, it can be seen that the results of in vivo trials were more similar to those of the GN culture than the NE culture.
FIG. 27 is a quantitative analysis of images in FIG. 25. GLT-1 area was determined by the percentage of the immunoreactive area in each hippocampal region of interest and then normalized with the respective saline treatment group. Note that GLT-1 immunoreactivity was depleted in the stratum pyramidale (SP) and stratum lucidum (SL) layers of CA3 in the KA treatment group, and the effect was attenuated by the AUDA pretreatment.

Oligodendrocytes = assay: excitotoxic NMDA treatment of oligodendrocytes in GN mix culture (RIP/NF200 staining); assay type: cell-based, mouse; settings: NM:GCM 1:1 medium, 5 μM NMDA at 14 DIV for 24 hour
Protocol: Oligodendrocytes obtained from mouse primary neonatal brain cells cultivated using the GN culture compositions provided in table 4 were treated with 5 μM NMDA at 14 DIV for 24 hour.
The cell nuclei are characterized by immunostaining shown in blue. […] Moreover, the response of oligodendrocytes to excitotoxic NMDA treatment can further mimic excitotoxicity-induced demyelination.

[3] = target: T1, aryl hydrocarbon receptor (AHR) (Mus musculus, UniProt P30561); settings: WT mice, cited from earlier work
T1 construct: the brains of adult mice were used to study the effect of aryl hydrocarbon receptor modulation; from tissue; host or cells: adult mouse brain, peri-infarct cortex (in vivo)
T1 sequence (P30561 10-848): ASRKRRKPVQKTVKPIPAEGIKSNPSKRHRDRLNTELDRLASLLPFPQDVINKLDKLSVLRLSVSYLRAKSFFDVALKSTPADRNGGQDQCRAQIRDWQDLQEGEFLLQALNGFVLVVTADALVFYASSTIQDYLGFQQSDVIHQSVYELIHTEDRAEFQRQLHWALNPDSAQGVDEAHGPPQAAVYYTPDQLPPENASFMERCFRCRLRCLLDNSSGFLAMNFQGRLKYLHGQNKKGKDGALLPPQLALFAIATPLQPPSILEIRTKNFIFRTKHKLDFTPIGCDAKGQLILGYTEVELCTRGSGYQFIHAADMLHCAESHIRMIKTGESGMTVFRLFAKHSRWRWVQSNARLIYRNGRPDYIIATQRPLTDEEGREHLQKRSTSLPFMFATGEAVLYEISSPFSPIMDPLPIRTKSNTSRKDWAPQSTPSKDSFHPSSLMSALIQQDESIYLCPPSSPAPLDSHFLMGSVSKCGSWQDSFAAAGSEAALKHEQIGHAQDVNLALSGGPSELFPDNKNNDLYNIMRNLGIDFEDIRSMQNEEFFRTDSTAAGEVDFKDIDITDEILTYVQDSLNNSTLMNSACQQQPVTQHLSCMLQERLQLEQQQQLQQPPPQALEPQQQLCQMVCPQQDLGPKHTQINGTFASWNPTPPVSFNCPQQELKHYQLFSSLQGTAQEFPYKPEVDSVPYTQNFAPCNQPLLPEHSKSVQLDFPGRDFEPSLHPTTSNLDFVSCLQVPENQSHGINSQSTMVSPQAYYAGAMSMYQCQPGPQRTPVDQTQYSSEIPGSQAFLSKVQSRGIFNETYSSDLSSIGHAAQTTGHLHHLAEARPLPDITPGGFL

mouse hippocampi = assay: intraperitoneal LPS injection, astrocyte and microglia plasticity in hippocampi; assay type: in vivo; settings: LPS i.p. for 7 days at 3 mg/kg body weight per injection, vs saline
Protocol: To validate the results of in vitro LPS treatment of the present invention, LPS was injected intraperitoneally in mice for 7 days at 3 mg/kg body weight per injection and the astrocyte and microglia plasticity in mouse hippocampi examined. […] Astrocytes were marked with GFAP and colored in green, while cell nuclei were marked with DAPI and colored in blue.
Microglia were marked with Iba-1 and colored in green, while cell nuclei were marked with DAPI and colored in blue.

[4] = system: rat cerebral cortex cells; assay: LPS neuroinflammation in cerebral cortex cells cultured in the media of Table 3; assay type: cell-based; settings: for percentages of MAP2 positive cells in the total population (neurons): 1 μg/mL LPS for 24 hours on day 13
Excerpt: The efficacies of simulating in vivo cell morphology, cell interactions and responses to stimuli in vitro using mGNCM of different ratios of modified neuron medium (mNM) and glia culture medium (GCM) were compared, 1:1:, 2:1 and GCM only groups, and the GCM only group comprising only GCM and 10% FBS as shown in Table 3 above.
The effects of neuroinflammation simulation of rat cerebral cortex cells grown in vitro using the three embodiments of mGNCM of Table 3 were examined. Cells obtained from rat cerebral cortex were cultured in vitro for 13 days using the three culture media above, then treated with 1 μg/mL of lipopolysaccharides (LPS) for 24 hours on day 13 to trigger inflammation. Following LPS treatment, immunostaining was performed to observe cell population, morphology, and response to inflammatory stimulus.
The immunostaining images of FIG. 5 show neuronal population and response to LPS stimulation, wherein CTL represents control groups (not subjected to LPS treatment) and LPS represents groups treated with LPS to induce neuroinflammation. The images show astrocyte cytoskeleton marked with GFAP and colored in red, neuron dendrites marked with MAP2 and colored in green, as well as cell nuclei marked with DAPI and colored in blue. FIGS. 5A1-5A3 and 5B1-5B3 show cells cultured with GCM only, FIGS. 5C1-5C3 and 5D1-5D3 show cells cultured with 1:1 mNM and GCM, while FIGS. 5E1-5E3 and 5F1-5F3 show cells cultured with 2:1 mNM and GCM. The GCM only group comprises fewer neurons, and the cells are smaller and unhealthier in both CTL and LPS treatment groups.

[5] = system: cells extracted from rat cerebral cortex; assay: LPS neuroinflammation and cell type population in glia cell and neuron co-culture in the media of Table 4; assay type: cell-based
Protocol: To further examine the effects of various embodiments of mGNCM with different ratios of mNM and GCM of the present invention on cell type population and morphology of rat glia cells and neurons co-culture, six cell culture media were prepared to the specifications of Table 4.
On postnatal day 0 (P0), cells extracted from rat cerebral cortex were inoculated in each of the cell culture media of Table 4. Following 14 days of in vitro cultivation, immunostaining was performed on the control groups (CTL) to aid in the observation of cell type ratios, specifically of neurons, astrocytes, and microglia, and oligodendrocytes as well as cell morphology. Cultures of the LPS groups (LPS) were subjected to inflammatory stimulation via 1 μg/mL LPS at 13 days in vitro. After another 24 hours, the LPS groups were subjected to immunostaining as well, for the observation of cell morphology and cell count.

[6] = DGh and CA3, unilateral i.c.v. injection, 24 h after injection
[7] = DGh and CA3, KA i.c.v. vs saline, 24 h
[8] = TMF 5 mg/kg/day intraperitoneally, 48 h after MCAO
[9] = all groups except for the GCM only group, 1 μg/mL LPS, 24 hours

CCCCCC1OC1CC=CCC=CCC=CCCCC(=O)O (stereo not shown) [14,15-EET, 14,15-epoxyeicosatrienoic acid]
NMDA-induced MAP2+ neurite reduction [1]: significantly attenuated | NMDA-induced cell death (TUNEL+ cells) [1]: significantly attenuated

O=C(O)CCCCCCCCCCCNC(=O)NC12CC3CC(CC(C3)C1)C2 [AUDA, 12-(3-adamantan-1-yl-ureido)-dodecanoic acid]
KA-induced MAP2+ dendrite damage [2, 6]: significantly attenuated | KA-induced NeuN+ cell loss [2, 6]: significantly attenuated | KA-induced depletion of GLT-1 immunoreactivity ([2]; SP and SL layers of CA3, AUDA pretreatment): attenuated | NMDA-induced MAP2+ neurite reduction [1]: significantly attenuated | NMDA-induced cell death (TUNEL+ cells) [1]: significantly attenuated

C=C(C)[C@H]1CN[C@H](C(=O)O)[C@H]1CC(=O)O [KA, kainic acid]
MAP2+ dendrite area [2, 7]: significantly reduced | NeuN+ neurons [2, 7]: significantly reduced | GLT-1 immunoreactivity ([2]; SP and SL layers of CA3, KA treatment group): depleted

CN[C@H](CC(=O)O)C(=O)O [NMDA, N-methyl-D-aspartate]
oligodendrocyte process extension and arborization (Oligodendrocytes): disrupts

COc1ccc(-c2cc(=O)c3cc(OC)ccc3o2)c(OC)c1 [TMF, 6,2′,4′-trimethoxyflavone]
GFAP-positive astrogliosis at the peri-infarct cortex after MCAO [3, 8]: markedly decreased | Iba1-positive microgliosis at the peri-infarct cortex after MCAO [3, 8]: markedly decreased | AHR immunoreactivity colocalized within Iba1-positive microglia and GFAP-positive astrocytes after MCAO ([3]; TMF-treated vs vehicle-treated, peri-infarct cortex): markedly decreased

lipopolysaccharides [LPS]
astrocyte plasticity (GFAP) in hippocampal CA1 and CA3 (mouse hippocampi): induced astrocyte hypertrophy and proliferation | microglia plasticity (Iba-1) in hippocampal CA1 (mouse hippocampi): induced microglial hypertrophy and proliferation | astrocyte hypertrophy (GFAP) ([4]; 1:1 group and 2:1 group, 1 μg/mL LPS for 24 hours): can be found | microglia cell density and cell size (Iba1) ([4]; 1:1 group, 1 μg/mL LPS for 24 hours): marked increase | percentages of MAP2 positive cells in the total population (neurons) ([4]; 1:1 group): induces neuronal loss | percentages of MAP2 positive cells in the total population (neurons) ([4]; GCM only and 2:1 groups): not affected in this way | astrocyte hypertrophy (GFAP) ([4]; GCM only group, 1 μg/mL LPS for 24 hours): not observed | Iba1 positive area per cell, control vs LPS groups ([5]; 1:1, 2:1, and 4:1 groups, 1 μg/mL LPS, 24 hours): significant differences | percentage of neurons in total cells (MAP2-circled cells in total DAPI) ([5]; 2:1 mGNCM group, 1 μg/mL LPS, 24 hours): significant neuronal loss | microglia morphology (Iba1) [5, 9]: induces microglial hypertrophy (microgliosis) | percentage of neurons in total cells (MAP2-circled cells in total DAPI) [5, 9]: reduced | oligodendrocyte (OL) cell density ([5]; different groups of GN mix cultures, 1 μg/ml LPS): does not affect | percentage of astrocytes in total cells (GFAP-circled cells in total DAPI) ([5]; groups of Table 4, 1 μg/mL LPS, 24 hours): does not cause significant proliferation or death of astrocytes | oligodendrocyte process shrinkage ([5]; mNM:GCM 0.5:1 and 1:1 media, 1 μg/ml LPS): can be observed | percentage of microglia in total cells (Iba1 positive cells in total DAPI) ([5]; mNM:GCM 1:1 medium only, 1 μg/mL LPS, 24 hours): induces significant microglia proliferation | microglia number (Iba1 images) ([5]; mNM:GCM 2:1 co-culture system, 1 μg/mL LPS, 24 hours): induces an increase of microglia | astrocyte morphology (GFAP) ([5]; media of Table 4, 1 μg/mL LPS at 13 DIV, 24 hours): induces astrocyte hypertrophy and process arborization
